The values that follow come from ChEMBL document CHEMBL1145592, “Pleuromutilin derivatives having a purine ring. Part 1: new compounds with promising antibacterial activity against resistant Gram-positive pathogens” (2008).

What all share (assay type): functional
Test [1] deals with Streptococcus pneumoniae. Description: Antibacterial activity against penicillin-resistant Streptococcus pneumoniae KT2524.
Test [2] concerns Staphylococcus aureus. The test can be described thus: Antibacterial activity against methicillin-susceptible Staphylococcus aureus Smith.
In test [3] the test system is Staphylococcus aureus. The test can be described thus: Antibacterial activity against methicillin-resistant Staphylococcus aureus KMP9.
In the next test the test system is Haemophilus influenzae. Description: Antibacterial activity against Haemophilus influenzae TH13.
In test [4] the test system is Streptococcus pneumoniae. The test can be described thus: Antibacterial activity against penicillin-susceptible Streptococcus pneumoniae ATCC 49619.
The next test relates to Enterococcus faecium. The test can be described thus: Antibacterial activity against vancomycin-resistant Enterococcus faecium KU1778.
The test system of the next test is Streptococcus pyogenes. The test can be described thus: Antibacterial activity against Streptococcus pyogenes ATCC 12344.
Test [5] deals with Staphylococcus aureus. Description: Antibacterial activity against methicillin-susceptible Staphylococcus aureus Smith infected iv dosed mouse 1 hr after inoculation.
A further test deals with Moraxella catarrhalis. Description: Antibacterial activity against Moraxella catarrhalis K1209.

In brackets after ≈: the same amount, converted by molar mass.

The term ED50 denotes the dose at which the effect has come halfway, by size or by number of responders. A high value points to a need for a large dose. As for `C=C[C@]1(C)C[C@@H](OC(=O)CSC2CCN(C(=O)CCn3cnc4c(N5CC(N)C5)nc(N)nc43)CC2)[C@]2(C)[C@H](C)CC[C@]3(CCC(=O)[C@@H]32)[C@@H](C)[C@@H]1O`, the MIC in the test with Streptococcus pneumoniae [1] was found to be 0.125 µg/mL (≈ 0.17 µM); with Staphylococcus aureus [2], 0.5 µg/mL (≈ 0.678 µM); in the test with Staphylococcus aureus [3], 1 µg/mL (≈ 1.36 µM); with Haemophilus influenzae it was 1 µg/mL (≈ 1.36 µM); against Streptococcus pneumoniae [4], 0.063 µg/mL (≈ 0.0855 µM); against Enterococcus faecium, 0.25 µg/mL (≈ 0.339 µM). Also, the results for the MIC in the test with Streptococcus pyogenes and in the test with Moraxella catarrhalis were 0.063 µg/mL (≈ 0.0855 µM) and 0.25 µg/mL (≈ 0.339 µM), respectively. For the same molecule, the median effective dose (ED50) in the test on Staphylococcus aureus [5] was determined as 3.04 mg/kg.

Turning to `C=C[C@]1(C)C[C@@H](OC(=O)CSC2CCN(C(=O)CCn3cnc4c(N5CCNC(C)C5)nc(N)nc43)CC2)[C@]2(C)[C@H](C)CC[C@]3(CCC(=O)[C@@H]32)[C@@H](C)[C@@H]1O` (stereo not given in full), the MIC turned out to be 0.063 µg/mL (≈ 0.0823 µM) against Streptococcus pneumoniae [1]; 0.25 µg/mL (≈ 0.327 µM) against Staphylococcus aureus [2]; 0.25 µg/mL (≈ 0.327 µM) in the test on Staphylococcus aureus [3]; 2 µg/mL (≈ 2.61 µM) against Haemophilus influenzae; 0.063 µg/mL (≈ 0.0823 µM) against Streptococcus pneumoniae [4]; 0.125 µg/mL (≈ 0.163 µM) against Enterococcus faecium. The values for the MIC with Streptococcus pyogenes and against Moraxella catarrhalis were 0.032 µg/mL (≈ 0.0418 µM) and 0.063 µg/mL (≈ 0.0823 µM), respectively. Besides, in the test on Staphylococcus aureus [5], it took a dose of 2.21 mg/kg to reach the 50% effect level (ED50).

Take `C=C[C@]1(C)C[C@@H](OC(=O)CSC2CCN(C(=O)CCn3cnc4c(N5CCC(NC)C5)ncnc43)CC2)[C@]2(C)[C@H](C)CC[C@]3(CCC(=O)[C@@H]32)[C@@H](C)[C@@H]1O` (stereo not given in full): the MIC in the test on Streptococcus pneumoniae [1] amounted to 0.032 µg/mL (≈ 0.0427 µM); against Staphylococcus aureus [2], 0.063 µg/mL (≈ 0.084 µM); against Staphylococcus aureus [3] it was 0.25 µg/mL (≈ 0.333 µM); against Haemophilus influenzae, 2 µg/mL (≈ 2.67 µM); against Streptococcus pneumoniae [4], 0.016 µg/mL (≈ 0.0213 µM); with Enterococcus faecium, 0.032 µg/mL (≈ 0.0427 µM). Besides, the MIC was determined as 0.016 µg/mL (≈ 0.0213 µM) in the test with Streptococcus pyogenes and 0.063 µg/mL (≈ 0.084 µM) with Moraxella catarrhalis. In the test on Staphylococcus aureus [5], this molecule yielded an ED50 of 1.61 mg/kg.

Consider `C=C[C@]1(C)C[C@@H](OC(=O)CSC2CCN(C(=O)CCn3cnc4c(N5CCC(CN)C5)ncnc43)CC2)[C@]2(C)[C@H](C)CC[C@]3(CCC(=O)[C@@H]32)[C@@H](C)[C@@H]1O` (stereo not given in full), for which the MIC came to 0.032 µg/mL (≈ 0.0427 µM) with Streptococcus pneumoniae [1]; 0.125 µg/mL (≈ 0.167 µM) against Staphylococcus aureus [2]; 0.5 µg/mL (≈ 0.667 µM) against Staphylococcus aureus [3]; 1 µg/mL (≈ 1.33 µM) in the test on Haemophilus influenzae; 0.016 µg/mL (≈ 0.0213 µM) against Streptococcus pneumoniae [4]; 0.125 µg/mL (≈ 0.167 µM) against Enterococcus faecium. For the same molecule, the MIC worked out at 0.008 µg/mL (≈ 0.0107 µM) with Streptococcus pyogenes and 0.063 µg/mL (≈ 0.084 µM) with Moraxella catarrhalis. The molecule also came in with an ED50 in the test on Staphylococcus aureus [5] of 0.59 mg/kg.

For `C=C[C@]1(C)C[C@@H](OC(=O)CSC2CCN(C(=O)CCn3cnc4c(N5CC[C@H](N)C5)ncnc43)CC2)[C@]2(C)[C@H](C)CC[C@]3(CCC(=O)[C@@H]32)[C@@H](C)[C@@H]1O`, the MIC in the test with Streptococcus pneumoniae [1] worked out at 0.032 µg/mL (≈ 0.0435 µM); in the test with Staphylococcus aureus [2], 0.125 µg/mL (≈ 0.17 µM); with Staphylococcus aureus [3], 0.5 µg/mL (≈ 0.679 µM); in the test with Haemophilus influenzae, 2 µg/mL (≈ 2.72 µM); in the test with Streptococcus pneumoniae [4] it was 0.032 µg/mL (≈ 0.0435 µM); in the test on Enterococcus faecium, 0.125 µg/mL (≈ 0.17 µM). For the same molecule, the MIC stood at 0.016 µg/mL (≈ 0.0217 µM) against Streptococcus pyogenes and 0.125 µg/mL (≈ 0.17 µM) with Moraxella catarrhalis. Further, the ED50 in the test on Staphylococcus aureus [5] was determined as 1.3 mg/kg.

For the molecule `C=C[C@]1(C)C[C@@H](OC(=O)CSC2CCN(C(=O)CCn3cnc4c(N5CCNCC5)ncnc43)CC2)[C@]2(C)[C@H](C)CC[C@]3(CCC(=O)[C@@H]32)[C@@H](C)[C@@H]1O`, the MIC in the test with Streptococcus pneumoniae [1] was 0.032 µg/mL (≈ 0.0435 µM); in the test on Staphylococcus aureus [2] it was 0.063 µg/mL (≈ 0.0856 µM); against Staphylococcus aureus [3], 0.063 µg/mL (≈ 0.0856 µM); in the test on Haemophilus influenzae, 1 µg/mL (≈ 1.36 µM); against Streptococcus pneumoniae [4], 0.032 µg/mL (≈ 0.0435 µM); in the test on Enterococcus faecium it was 0.032 µg/mL (≈ 0.0435 µM). Moreover, the MIC with Streptococcus pyogenes worked out at 0.016 µg/mL (≈ 0.0217 µM); against Moraxella catarrhalis, 0.032 µg/mL (≈ 0.0435 µM). In the test with Staphylococcus aureus [5], this molecule had an ED50 of 2.94 mg/kg.

Consider `C=C[C@]1(C)C[C@@H](OC(=O)CSC2CCN(C(=O)CCn3cnc4c(N5CCC(N(C)C)CC5)nc(N)nc43)CC2)[C@]2(C)[C@H](C)CC[C@]3(CCC(=O)[C@@H]32)[C@@H](C)[C@@H]1O`, for which the MIC against Streptococcus pneumoniae [1] stood at 0.063 µg/mL (≈ 0.0794 µM); in the test with Staphylococcus aureus [2], 0.25 µg/mL (≈ 0.315 µM); in the test on Staphylococcus aureus [3], 0.25 µg/mL (≈ 0.315 µM); against Haemophilus influenzae, 2 µg/mL (≈ 2.52 µM); against Streptococcus pneumoniae [4], 0.063 µg/mL (≈ 0.0794 µM); in the test with Enterococcus faecium, 0.125 µg/mL (≈ 0.158 µM). Besides, the MIC with Streptococcus pyogenes was found to be 0.032 µg/mL (≈ 0.0403 µM); against Moraxella catarrhalis it was 0.063 µg/mL (≈ 0.0794 µM). The ED50 with Staphylococcus aureus [5] is 1.72 mg/kg.

As to `C=C[C@]1(C)C[C@@H](OC(=O)CSC2CCN(C(=O)CCn3cnc4c(N5CCC(N)C5)ncnc43)CC2)[C@]2(C)[C@H](C)CC[C@]3(CCC(=O)[C@@H]32)[C@@H](C)[C@@H]1O` (stereo not given in full), the MIC with Streptococcus pneumoniae [1] is 0.032 µg/mL (≈ 0.0435 µM); in the test on Staphylococcus aureus [2] it was 0.063 µg/mL (≈ 0.0856 µM); against Staphylococcus aureus [3], 0.125 µg/mL (≈ 0.17 µM); in the test with Haemophilus influenzae, 1 µg/mL (≈ 1.36 µM); in the test on Streptococcus pneumoniae [4], 0.016 µg/mL (≈ 0.0217 µM); against Enterococcus faecium, 0.032 µg/mL (≈ 0.0435 µM). Also, the values for the MIC against Streptococcus pyogenes and with Moraxella catarrhalis were 0.016 µg/mL (≈ 0.0217 µM) and 0.032 µg/mL (≈ 0.0435 µM), respectively.

On to `C=C[C@]1(C)C[C@@H](OC(=O)CSC2CCN(C(=O)CCn3cnc4c(N5CCC(NC)CC5)nc(N)nc43)CC2)[C@]2(C)[C@H](C)CC[C@]3(CCC(=O)[C@@H]32)[C@@H](C)[C@@H]1O`, for which the MIC against Streptococcus pneumoniae [1] was 0.25 µg/mL (≈ 0.321 µM); against Staphylococcus aureus [2], 0.5 µg/mL (≈ 0.642 µM); with Staphylococcus aureus [3], 2 µg/mL (≈ 2.57 µM); in the test with Haemophilus influenzae, 2 µg/mL (≈ 2.57 µM); against Streptococcus pneumoniae [4], 0.125 µg/mL (≈ 0.16 µM); against Enterococcus faecium, 0.5 µg/mL (≈ 0.642 µM). For the same molecule, the MIC with Streptococcus pyogenes amounted to 0.063 µg/mL (≈ 0.0809 µM); against Moraxella catarrhalis, 0.25 µg/mL (≈ 0.321 µM). Also, the ED50 in the test on Staphylococcus aureus [5] worked out at 1.41 mg/kg.
